Counter-ions that a name gives are not always drawn. Like-named read-outs stand apart in the source and are kept apart here.
Tests used:
[1] = system: spontaneously hypertensive rats; assay: Renal blood flow increasing effect (renal circulation improving effect) in anesthetized male spontaneously hypertensive rats; type: in vivo; settings: Rattus norvegicus
Procedure: Male spontaneously hypertensive rats aged 10 to 11 weeks (3 to 6 animals per group) were anesthetized with pentobarbital and used. After laparotomy, an electromagnetic flowmeter probe (Narco) was fitted to the left renal artery and the renal blood flow was continuously recorded on a polygraph (Sanei Sokki K.K.). […] Each test compound was dissolved in polyethylene glycol 400 to prepare a stock solution. This stock solution was diluted five-fold with physiological saline and the dilution was intravenously administered to rats in a volume of 0.5 ml/kg body weight. The dosage was 0.01 mg/kg for all test compounds. The renal blood flow was measured over a period of 40 minutes following the medication. The values shown are: [formula]

[2] = system: spontaneously hypertensive rats; assay: Antihypertensive action (systolic blood pressure, caudal artery) in male spontaneously hypertensive rats; type: in vivo, rat; settings: 10 mg/kg oral; for Change in blood pressure 1 hr. after treatment / Change in blood pressure 5 hrs. after treatment: after minus before medication, * P < 0.05 vs control; for Duration of antihypertensive effect: measured 1, 5, 8 and 24 hours after administration
Procedure: Male spontaneously hypertensive rats aged 10 to 11 weeks were used (in groups of 3 to 6 individuals). […] Each test compound was suspended in a 5% solution of gum arabic and orally administered. The dosage was 10 mg/kg for all compounds. Animals in a control group was given the above solution of gum arabic only.

[3] = Acute toxicity in male and female Wistar rats; settings: in vivo; oral; male rat; observed 7 days
Procedure: 2-(4-Benzhydryl-1-piperazinyl)ethyl methyl 2,6-dimethyl-4-(3-nitrophenyl)-1,4-dihydropyridine-3,5-dicarboxylate dihydrochloride was suspended in a 5% solution of gum arabic and orally administered to male and female Wistar rats aged 5 weeks (body weight 105 to 139 g) in a dose of 62.5, 125, 250, 500 and 1000 mg/kg (in groups of 4 to 8) and each animal so treated was observed over a period of 7 days.

[4] = 1 min, 0.01 mg/kg intravenous, 1 minute, * P < 0.05 vs control, read-out: Change in renal blood flow, 1 Minute after medication
[5] = 20 min, 0.01 mg/kg intravenous, 20 minutes, * P < 0.05 vs control, read-out: Change in renal blood flow, 20 Minutes after medication
[6] = 40 min, 0.01 mg/kg intravenous, 40 minutes, * P < 0.05 vs control, read-out: Change in renal blood flow, 40 Minutes after medication

COC(=O)C1=C(C)NC(C)=C(C(=O)OCCN2CCN(C(c3ccccc3)c3ccccc3)CC2)C1c1cccc([N+](=O)[O-])c1.Cl.Cl (stereo not shown) [Example 1, 2-(4-benzhydryl-1-piperazinyl)ethyl methyl 2,6-dimethyl-4-(3-nitrophenyl)-1,4-dihydropyridine-3,5-dicarboxylate dihydrochloride]
change in vivo at 0.01 mg/kg [1, 4]: 10.4%
change in vivo at 0.01 mg/kg [1, 5]: 13.4%
change in vivo at 0.01 mg/kg [1, 6]: 12.8%
Change in blood pressure 1 hr. after treatment [2]: -89 mmHg
Change in blood pressure 5 hrs. after treatment [2]: -91 mmHg
Duration of antihypertensive effect [2]: > 24 h

COC(=O)C1=C(C)NC(C)=C(C(=O)OCCN2CCN(C(c3ccc(F)cc3)c3ccc(F)cc3)CC2)C1c1cccc([N+](=O)[O-])c1 (stereo not shown) [Example 8, 2-[4-(4,4'-difluorobenzhydryl)-1-piperazinyl]ethyl methyl 2,6-dimethyl-4-(3-nitrophenyl)-1,4-dihydropyridine-3,5-dicarboxylate]
change in vivo at 0.01 mg/kg [1, 4]: 5.7%
change in vivo at 0.01 mg/kg [1, 5]: 6.4%
change in vivo at 0.01 mg/kg [1, 6]: 9.7%
Change in blood pressure 1 hr. after treatment [2]: -96 mmHg
Change in blood pressure 5 hrs. after treatment [2]: -98 mmHg
Duration of antihypertensive effect [2]: > 24 h

COC(=O)C1=C(C)NC(C)=C(C(=O)OCCN2CCN(C(c3ccccc3)c3ccccc3)CC2)C1c1cccc(Cl)c1Cl (stereo not shown) [Example 6, 2-(4-benzhydryl-1-piperazinyl)ethyl methyl 4-(2,3-dichlorophenyl)-2,6-dimethyl-1,4-dihydropyridine-3,5-dicarboxylate]
change in vivo at 0.01 mg/kg [1, 4]: 4.5%
change in vivo at 0.01 mg/kg [1, 5]: 7.5%
change in vivo at 0.01 mg/kg [1, 6]: 6%
Change in blood pressure 1 hr. after treatment [2]: -30 mmHg
Change in blood pressure 5 hrs. after treatment [2]: -33 mmHg
Duration of antihypertensive effect [2]: 8 to 24 h

CCOC(=O)C1=C(C)NC(C)=C(C(=O)OCCN2CCN(C(c3ccc(C)cc3)c3ccc(C)cc3)CC2)C1c1cccc([N+](=O)[O-])c1 (stereo not shown) [Example 31, 2-[4-(4,4'-dimethylbenzhydryl)-1-piperazinyl]ethyl ethyl 2,6-dimethyl-4-(3-nitrophenyl)-1,4-dihydropyridine-3,5-dicarboxylate]
change in vivo at 0.01 mg/kg [1, 4]: 3.3%
change in vivo at 0.01 mg/kg [1, 5]: 4.3%
change in vivo at 0.01 mg/kg [1, 6]: 1.8%
Change in blood pressure 1 hr. after treatment [2]: -77 mmHg
Change in blood pressure 5 hrs. after treatment [2]: -77 mmHg
Duration of antihypertensive effect [2]: 8 to 24 h

COC(=O)C1=C(C)NC(C)=C(C(=O)OCCCN2CCN(C(c3ccccc3)c3ccccc3)CC2)C1c1cccc([N+](=O)[O-])c1 (stereo not shown) [Example 37, 3-(4-benzhydryl-1-piperazinyl)propyl methyl 2,6-dimethyl-4-(3-nitrophenyl)-1,4-dihydropyridine-3,5-dicarboxylate]
change in vivo at 0.01 mg/kg [1, 4]: 8.5%
change in vivo at 0.01 mg/kg [1, 5]: 10.8%
change in vivo at 0.01 mg/kg [1, 6]: 11.3%
Change in blood pressure 1 hr. after treatment [2]: -63 mmHg
Change in blood pressure 5 hrs. after treatment [2]: -30 mmHg
Duration of antihypertensive effect [2]: ca. 8 hrs.

COC(=O)C1=C(C)NC(C)=C(C(=O)OCCN2CCCN(C(c3ccccc3)c3ccccc3)CC2)C1c1cccc([N+](=O)[O-])c1 (stereo not shown) [Example 15, 2-(4-benzhydrylhomopiperazin-1-yl)-ethyl methyl 2,6-dimethyl-4-(3-nitrophenyl)-1,4-dihydropyridine-3,5-dicarboxylate]
change in vivo at 0.01 mg/kg [1, 4]: 4.2%
change in vivo at 0.01 mg/kg [1, 5]: 4.2%
change in vivo at 0.01 mg/kg [1, 6]: 2.9%
Change in blood pressure 1 hr. after treatment [2]: -38 mmHg
Change in blood pressure 5 hrs. after treatment [2]: -18 mmHg
Duration of antihypertensive effect [2]: 5 to 8 h

COC(=O)C1=C(C)NC(C)=C(C(=O)OC)C1c1ccccc1[N+](=O)[O-] [Nifedipine, reference compound]
change in vivo at 0.01 mg/kg ([1]; iv, 1 min, read-out: Change in renal blood flow, 1 Minute after medication): 3%
change in vivo at 0.01 mg/kg ([1]; iv, 20 min, read-out: Change in renal blood flow, 20 Minutes after medication): 3.1%
change in vivo at 0.01 mg/kg ([1]; iv, 40 min, read-out: Change in renal blood flow, 40 Minutes after medication): 2.2%
Change in blood pressure 1 hr. after treatment [2]: -45 mmHg
Change in blood pressure 5 hrs. after treatment [2]: -3 mmHg
Duration of antihypertensive effect [2]: < 5 h

COC(=O)C1=C(C)NC(C)=C(C(=O)OCCN2CCN(C(c3ccc(OC)cc3)c3ccc(OC)cc3)CC2)C1c1cccc([N+](=O)[O-])c1 (stereo not shown) [Example 10, 2-[4-(4,4'-dimethoxybenzhydryl)-1-piperazinyl]ethyl methyl 2,6-dimethyl-4-(3-nitrophenyl)-1,4-dihydropyridine-3,5-dicarboxylate]
change in vivo at 0.01 mg/kg [1, 4]: 6.9%
change in vivo at 0.01 mg/kg [1, 5]: 8.3%
change in vivo at 0.01 mg/kg [1, 6]: 6.8%
Change in blood pressure 1 hr. after treatment [2]: -88 mmHg
Change in blood pressure 5 hrs. after treatment [2]: -57 mmHg
Duration of antihypertensive effect [2]: 8 to 24 h

COC(=O)C1=C(C)NC(C)=C(C(=O)OCCN2CCN(C(c3ccccc3)c3ccccc3)CC2)C1c1cccc(Cl)c1 (stereo not shown) [Example 22, 2-(4-benzhydryl-1-piperazinyl)ethyl methyl 4-(3-chlorophenyl)-2,6-dimethyl-1,4-dihydropyridine-3,5-dicarboxylate]
change in vivo at 0.01 mg/kg [1, 4]: 7.5%
change in vivo at 0.01 mg/kg [1, 5]: 7.8%
change in vivo at 0.01 mg/kg [1, 6]: 9.6%
Change in blood pressure 1 hr. after treatment [2]: -97 mmHg
Change in blood pressure 5 hrs. after treatment [2]: -83 mmHg
Duration of antihypertensive effect [2]: 8 to 24 h

COC(=O)C1=C(C)NC(C)=C(C(=O)OCCN(C)Cc2ccccc2)C1c1cccc([N+](=O)[O-])c1 (stereo not shown) [Nicardipine.HCl, reference compound]
change in vivo at 0.01 mg/kg [1, 4]: -15%
change in vivo at 0.01 mg/kg [1, 5]: -1.9%
change in vivo at 0.01 mg/kg [1, 6]: 0.3%
Change in blood pressure 1 hr. after treatment [2]: -38 mmHg
Change in blood pressure 5 hrs. after treatment [2]: +2 mmHg
Duration of antihypertensive effect [2]: < 5 h

COC(=O)C1=C(C)NC(C)=C(C(=O)OCCN2CCN(C(c3ccccc3)c3ccccc3)CC2)C1c1cccc([N+](=O)[O-])c1.Cl.Cl (stereo not shown) [2-(4-Benzhydryl-1-piperazinyl)ethyl methyl 2,6-dimethyl-4-(3-nitrophenyl)-1,4-dihydropyridine-3,5-dicarboxylate dihydrochloride]
LD50 at 168 h [3]: 250 to 500 mg/kg

CCOC(=O)C1=C(C)NC(C)=C(C(=O)OCCN2CCN(C(c3ccccc3)c3ccccc3)CC2)C1c1cccc(Cl)c1Cl (stereo not shown) [Example 7, 2-(4-benzhydryl-1-piperazinyl)ethyl ethyl 4-(2,3-dichlorophenyl)-2,6-dimethyl-1,4-dihydropyridine-3,5-dicarboxylate]
Change in blood pressure 1 hr. after treatment [2]: -59 mmHg
Change in blood pressure 5 hrs. after treatment [2]: -79 mmHg
Duration of antihypertensive effect [2]: > 24 h

COC(=O)C1=C(C)NC(C)=C(C(=O)OCCN2CCN(c3cccc(C(F)(F)F)c3)CC2)C1c1cccc([N+](=O)[O-])c1 (stereo not shown) [Example 18, methyl 2-[4-(3-trifluoromethylphenyl)-1-piperazinyl]ethyl 2,6-dimethyl-4-(3-nitrophenyl)-1,4-dihydropyridine-3,5-dicarboxylate]
change in vivo at 0.01 mg/kg [1, 4]: 8.8%
change in vivo at 0.01 mg/kg [1, 5]: 4.2%
change in vivo at 0.01 mg/kg [1, 6]: 5%
Change in blood pressure 1 hr. after treatment [2]: -68 mmHg
Change in blood pressure 5 hrs. after treatment [2]: -43 mmHg
Duration of antihypertensive effect [2]: 8 to 24 h

COC(=O)C1=C(C)NC(C)=C(C(=O)OCCN2CCN(C(c3ccccc3)c3ccccc3)CC2)C1c1cccc(C(F)(F)F)c1 (stereo not shown) [Example 23, 2-(4-benzhydryl-1-piperazinyl)ethyl methyl 2,6-dimethyl-4-(3-trifluoromethylphenyl)-1,4-dihydropyridine-3,5-dicarboxylate]
change in vivo at 0.01 mg/kg [1, 4]: 6.7%
change in vivo at 0.01 mg/kg [1, 5]: 9.7%
change in vivo at 0.01 mg/kg [1, 6]: 10.9%
Change in blood pressure 1 hr. after treatment [2]: -59 mmHg
Change in blood pressure 5 hrs. after treatment [2]: -66 mmHg
Duration of antihypertensive effect [2]: 8 to 24 h

From patent US4892875A, “Substituted heterocyclylalkyl esters of 1,4-dihydropyridine-3,5-dicarboxylic acids” (Takeda Chemical Industries, Ltd., priority 1982, dated 1990)
